Source: ChEMBL document CHEMBL4406808, “Synthesis and assessment of phenylacrylamide derivatives as potential anti-oxidant and anti-inflammatory agents” (Eur J Med Chem, 2019)
Active and inactive are the calls of the source. No cut-off for these calls is given here.

Columns and labels:
HBZY-1 [1] = assay: Cytoprotection activity against H2O2-induced cell death in rat HBZY-1 cells assessed as cell viability at 6 uM preincubated with compound for 2 hrs followed by H2O2 addition and measured after 24 hrs by MTT assay (reference value: 62.1%); format: functional; details: read-out: Activity
[2] = biological target: Kelch-like ECH-associated protein 1 (Rattus norvegicus) (UniProt P57790); assay: Binding affinity to Keap1 in rat HBZY-1 cells assessed as induction of Nrf2 nuclear translocation by measuring increase in ratio of nuclear to cytosolic Nrf2 level by Western blot analysis; format: cell-based
Kelch-like ECH-associated protein 1 (Rattus norvegicus), sequence (P57790 whole entry): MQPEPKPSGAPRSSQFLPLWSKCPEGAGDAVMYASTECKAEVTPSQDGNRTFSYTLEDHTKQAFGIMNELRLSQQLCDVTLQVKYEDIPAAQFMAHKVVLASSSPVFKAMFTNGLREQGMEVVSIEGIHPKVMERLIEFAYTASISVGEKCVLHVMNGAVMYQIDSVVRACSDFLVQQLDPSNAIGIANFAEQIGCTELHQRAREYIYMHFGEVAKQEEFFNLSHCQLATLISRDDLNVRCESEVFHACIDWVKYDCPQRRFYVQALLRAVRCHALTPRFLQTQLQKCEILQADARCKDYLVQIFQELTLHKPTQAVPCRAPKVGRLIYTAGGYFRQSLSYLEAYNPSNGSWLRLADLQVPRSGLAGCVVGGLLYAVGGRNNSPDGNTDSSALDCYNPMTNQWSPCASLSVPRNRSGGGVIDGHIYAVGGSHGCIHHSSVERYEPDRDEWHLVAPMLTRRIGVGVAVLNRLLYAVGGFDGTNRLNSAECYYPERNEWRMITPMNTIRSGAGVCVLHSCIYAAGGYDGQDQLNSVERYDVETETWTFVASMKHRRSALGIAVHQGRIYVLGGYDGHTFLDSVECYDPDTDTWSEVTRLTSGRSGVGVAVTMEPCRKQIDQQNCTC

[3] = biological target: Kelch-like ECH-associated protein 1 (Rattus norvegicus) (UniProt P57790); assay: Binding affinity to Keap1 in rat HBZY-1 cells assessed as induction of Keap1/Nrf2 signaling by measuring increase in NQO-1 protein expression by Western blot analysis; format: cell-based
[4] = biological target: Kelch-like ECH-associated protein 1 (Rattus norvegicus) (UniProt P57790); assay: Binding affinity to Keap1 in rat HBZY-1 cells assessed as induction of Keap1/Nrf2 signaling by measuring increase in HO-1 protein expression by Western blot analysis; format: cell-based
[5] = biological target: Kelch-like ECH-associated protein 1 (Rattus norvegicus) (UniProt P57790); assay: Binding affinity to Keap1 in rat HBZY-1 cells assessed as induction of Keap1/Nrf2 signaling by measuring increase in GCLM protein expression by Western blot analysis; format: cell-based
[6] = biological target: Kelch-like ECH-associated protein 1 (Rattus norvegicus) (UniProt P57790); assay: Binding affinity to Keap1 in rat HBZY-1 cells assessed as induction of Keap1/Nrf2 signaling by measuring increase in GCLC protein expression by Western blot analysis; format: cell-based
[7] = biological target: Kelch-like ECH-associated protein 1 (Rattus norvegicus) (UniProt P57790); assay: Binding affinity to Keap1 in rat HBZY-1 cells assessed as induction of Keap1/Nrf2 signaling by measuring increase in NQO-1 mRNA expression at 6 uM by RT-PCR analysis; format: cell-based
[8] = biological target: Kelch-like ECH-associated protein 1 (Rattus norvegicus) (UniProt P57790); assay: Binding affinity to Keap1 in rat HBZY-1 cells assessed as induction of Keap1/Nrf2 signaling by measuring increase in HO-1 mRNA expression at 6 uM by RT-PCR analysis; format: cell-based
[9] = biological target: Kelch-like ECH-associated protein 1 (Rattus norvegicus) (UniProt P57790); assay: Binding affinity to Keap1 in rat HBZY-1 cells assessed as induction of Keap1/Nrf2 signaling by measuring increase in GCLM mRNA expression at 6 uM by RT-PCR analysis; format: cell-based
[10] = biological target: Kelch-like ECH-associated protein 1 (Rattus norvegicus) (UniProt P57790); assay: Binding affinity to Keap1 in rat HBZY-1 cells assessed as induction of Keap1/Nrf2 signaling by measuring increase in GCLC mRNA expression at 6 uM by RT-PCR analysis; format: cell-based
HBZY-1 [11] = assay: Cytotoxicity against rat HBZY-1 cells assessed as reduction in cell viability after 2 hrs by MTT assay; format: cell-based; details: HBZY-1, 2 h
[12] = biological target: T1, Nuclear factor erythroid 2-related factor 2 (Homo sapiens) (UniProt Q16236); assay: Activation of Nrf2 (unknown origin) expressed in HEK293 cells co-transfected with ARE luciferase reporter plasmid at 20 uM after 16 hrs by dual luciferase reporter gene assay; format: cell-based
T1 sequence (whole entry): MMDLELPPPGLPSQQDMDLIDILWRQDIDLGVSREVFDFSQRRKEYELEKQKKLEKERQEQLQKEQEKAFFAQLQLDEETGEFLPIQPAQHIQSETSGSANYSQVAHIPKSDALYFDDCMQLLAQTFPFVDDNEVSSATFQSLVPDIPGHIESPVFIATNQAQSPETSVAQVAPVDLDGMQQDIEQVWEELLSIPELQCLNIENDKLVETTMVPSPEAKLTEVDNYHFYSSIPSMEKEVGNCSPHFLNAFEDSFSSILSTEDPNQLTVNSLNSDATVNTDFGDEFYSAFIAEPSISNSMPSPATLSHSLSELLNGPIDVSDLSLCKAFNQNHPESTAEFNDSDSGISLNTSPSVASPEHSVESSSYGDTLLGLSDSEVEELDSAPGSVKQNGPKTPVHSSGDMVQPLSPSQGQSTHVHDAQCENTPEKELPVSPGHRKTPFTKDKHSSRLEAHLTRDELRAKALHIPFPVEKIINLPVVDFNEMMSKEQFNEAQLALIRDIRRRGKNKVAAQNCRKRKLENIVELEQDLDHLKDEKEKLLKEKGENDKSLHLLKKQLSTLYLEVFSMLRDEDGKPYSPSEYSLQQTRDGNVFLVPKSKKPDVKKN

SMILES	viability at 6 µM (HBZY-1 [1])	IC50 (HBZY-1 [11])	also measured
Oc1ccc(/C=C/c2cc(O)cc(O)c2)cc1 [RESVERATROL]	76.8%	–	Activity [2]: Active; Activity [3]: Active; Activity [4]: Active; Activity [5]: Active; Activity [6]: Active; Activity [7]: Active; Activity [8]: Active; Activity [9]: Active; Activity [10]: Active
N#C/C(=C\c1ccccc1C(F)(F)F)C(=O)Nc1ccc(F)c(Cl)c1	80.4%	> 200 µM	–
O=C(/C=C/c1ccccc1C(F)(F)F)Nc1ccc(F)c(Cl)c1	65.6 to 96.4%	> 200 µM	–
COc1ccccc1NC(=O)/C(C#N)=C/c1cc(OC)c(OC)c(OC)c1	78.1%	> 200 µM	–
COc1ccc(CNC(=O)/C(C#N)=C/c2ccccc2C(F)(F)F)cc1	80.8%	> 200 µM	–
COc1cc(NC(=O)/C(C#N)=C/c2ccccc2C(F)(F)F)cc(OC)c1OC	65.6 to 96.4%	> 200 µM	–
CC(C)(C)c1cc(O)ccc1O	–	–	Activity [12]: Active
COc1ccccc1C(=O)/C=C/c1ccccc1C(F)(F)F	80.3%	–	–
COc1ccc(CCNC(=O)/C(C#N)=C/c2ccccc2C(F)(F)F)cc1OC	65.6 to 96.4%	> 200 µM	–
COc1ccc(CNC(=O)/C=C/c2ccccc2C(F)(F)F)cc1	65.6 to 96.4%	> 200 µM	–
COc1ccc(NC(=O)/C(C#N)=C/c2ccccc2C(F)(F)F)cc1	82.4%	> 200 µM	–
COc1ccc(NC(=O)/C(C#N)=C/c2ccccc2C(F)(F)F)cc1OC	78.2%	> 200 µM	–
COc1ccc(NC(=O)/C=C/c2ccccc2C(F)(F)F)cc1OC	65.6 to 96.4%	> 200 µM	–
